The values that follow come from patent publication US9611251B2, “Substituted piperidine compounds and their use as orexin receptor modulators” (Janssen Pharmaceutica NV, priority 2013, dated 2017).

The target in experiment [1] is rat orexin 1 receptor (Rattus norvegicus, UniProt P56718). Nature of the experiment: Rat orexin 1 receptor radioligand binding. To be noted: rat orexin 1 receptor radioligand binding; averages of 2-20 runs; read-out: rOX1 Ki. Summed up:
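Cell-suspension competition binding used 4 nM final tritiated thiazolyl-pyrrolidinyl-methanone radioligand in PBS, ≤0.1% DMSO, with 10 µM almorexant defining nonspecific binding. Filter-bound radioactivity was counted in triplicate. IC50 came from one-site competition fits and was converted to Ki using the predetermined Kd.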

Experiment [2] addresses human orexin 1 receptor (Homo sapiens, UniProt O43613). Nature of the experiment: Human orexin 1 receptor radioligand binding. As to conditions: human orexin 1 receptor radioligand binding; averages of 2-20 runs; read-out: hOX1 Ki. Here is the method:
The in vitro affinity of the compounds of the invention for the rat/human orexin 1 and human orexin 2 receptors was determined by competitive radioligand binding using [^3H](1-(5-(2-fluoro-phenyl)-2-methyl-thiazol-4-yl)-1-((S)-2-(5-phenyl-(1,3,4)oxadiazol-2-ylmethyl)-pyrrolidin-1-yl)-methanone) (Langmead et al., 2004) and [^3H]EMPA (n-ethyl-2[96-methoxypyridin-3-yl)-(toluene-2-sulfonyl)-amino]-N-pyridin-3-ylmethyl acetamide), respectively (Langmead et al., 2004, British Journal of Pharmacology 141:340-346; Malherbe et al., 2004, British Journal of Pharmacology 156:1326-41).
Data are analyzed using pc-Sandy macro and graphed on Graphpad Prism 5. For analysis, each concentration point is averaged from triplicate values and the averaged values are plotted on Graphpad Prism. The IC50 was determined by applying the following equation (GraphPad Prism 5.0, SanDiego) for one site competition where X=log (concentration) and Y=specific binding. Top denotes the total [^3H]-(1-(5-(2-fluoro-phenyl)-2-methyl-thiazol-4-yl)-1-((S)-2-(5-phenyl-(1,3,4)oxadiazol-2-ylmethyl)-pyrrolidin-1-yl)-methanone) binding, bottom denotes the nonspecific [^3H]-(1-(5-(2-fluoro-phenyl)-2-methyl-thiazol-4-yl)-1-((S)-2-(5-phenyl-(1,3,4)oxadiazol-2-ylmethyl)-pyrrolidin-1-yl)-methanone) binding. Graphpad Prism calculates Ki value from IC50 and the pre-determined Kd values for [^3H]-(1-(5-(2-fluoro-phenyl)-2-methyl-thiazol-4-yl)-1-((S)-2-(5-phenyl-(1,3,4)oxadiazol-2-ylmethyl)-pyrrolidin-1-yl)-methanone) and [3H]-EMPA. The Ki for each compound is then uploaded into 3DX. Each run comprises individual compounds in triplicate.
Rat and Human Orexin 1 Receptor Radioligand Binding Studies
Human Embryonic Kidney 293 cells (HEK293) stably expressing rat orexin 1 receptor (Genebank accession number NM_001525) or Chinese ovary cells (CHO) stably expressing human orexin 1 receptor (Genebank accession number NM_001526) were grown to confluency in DMEM (Hyclone, cat #SH30022), 10% FBS, 1×Pen/Strep, 1× sodium pyruvate, 10 mM HEPES, 600 μg/mL G418 and DMEM/F12 (Gibco, Cat #11039), 10% FBS, 1×Pen/Strep, 600 μg/mL G418 media, respectively on 150 cm^2 tissue culture plates, washed with 5 mM EDTA in PBS (HyClone Dulbecco's Phosphate Buffered Saline 1× with Calcium and Magnesium, Cat #SH30264.01, hereafter referred to simply as PBS) and scraped into 50 ml tubes. After centrifugation (2K×G, 5 min at 4° C.), the supernatant was aspirated and the pellets frozen and stored at −80° C. Cells were resuspended in PBS in the presence of 1 tablet of protease inhibitor cocktail (Roche, Cat. #11836145001) per 50 mL. Each cell pellet from a 15 cm plate was resuspended in 10 mL, stored on ice, and homogenized for 45 sec prior to addition to the reactions. Competition binding experiments in 96 well polypropylene plates were performed using [^3H]-(1-(5-(2-fluoro-phenyl)-2-methyl-thiazol-4-yl)-1-((S)-2-(5-phenyl-(1,3,4)oxadiazol-2-ylmethyl)-pyrrolidin-1-yl)-methanone) (Moraveck Corporation, specific activity=35.3 Ci/mmol), diluted to a 10 nM concentration in PBS (4 nM final). […] The final concentration of DMSO in the reactions is equal to or less than 0.1%. Total and nonspecific binding was determined in the absence and presence of 10 μM almorexant. The total volume of each reaction is 200 μL (20 μL of diluted compounds, 80 μL of [^3H]-(1-(5-(2-fluoro-phenyl)-2-methyl-thiazol-4-yl)-1-((S)-2-(5-phenyl-(1,3,4)oxadiazol-2-ylmethyl)-pyrrolidin-1-yl)-methanone) diluted in PBS and 100 μL of the cell suspension). Reactions were run for 60 min at room temperature and terminated by filtration through GF/C filter plates (PerkinElmer, Cat. #6005174) presoaked in 0.3% polyethylenimine using the cell harvester (PerkinElmer Filtermate). The plates were washed 3 times by aspirating 30 ml PBS through the plates. Plates were dried in 55° C. oven for 60 min, scintillation fluid was added, and the radioactivity was counted on a Topcount (Packard).

For experiment [3], the target named is human orexin 2 receptor (Homo sapiens (Human), UniProt O43614). Description: Human orexin 2 receptor radioligand binding ([3H]-EMPA). To be noted: averages of 2-20 runs, read-out: hOX2 Ki. The method in brief:
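Competition binding using homogenized HEK293 cells stably expressing human orexin 2 receptor, [3H]-EMPA at 2 nM final and ≤0.1% DMSO; nonspecific binding set with 10 μM almorexant. Filter-bound radioactivity counted by scintillation; one-site competition IC50 converted to Ki using pre-determined Kd, compounds run in triplicate.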

Chain of human orexin 2 receptor (O43614 whole entry): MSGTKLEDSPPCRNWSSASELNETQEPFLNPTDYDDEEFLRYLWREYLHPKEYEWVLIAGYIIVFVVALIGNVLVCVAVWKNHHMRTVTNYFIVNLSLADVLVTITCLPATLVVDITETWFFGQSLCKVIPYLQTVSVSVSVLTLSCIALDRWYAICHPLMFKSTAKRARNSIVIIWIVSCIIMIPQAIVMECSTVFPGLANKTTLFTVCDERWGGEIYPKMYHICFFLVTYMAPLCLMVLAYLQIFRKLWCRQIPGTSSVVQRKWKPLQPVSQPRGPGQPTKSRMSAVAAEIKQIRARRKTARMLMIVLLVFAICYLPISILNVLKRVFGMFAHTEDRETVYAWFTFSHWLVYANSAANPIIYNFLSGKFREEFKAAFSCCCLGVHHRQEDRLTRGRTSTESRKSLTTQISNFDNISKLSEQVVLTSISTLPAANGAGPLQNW

Consider `C[C@H]1[C@H](Oc2ccc(C(F)(F)F)cn2)CCCN1C(=O)c1cc(F)ccc1-c1ncccn1` [Example 138, (5-fluoro-2-(pyrimidin-2-yl)phenyl)((2S,3R)-2-methyl-3-((5-(trifluoromethyl)pyridin-2-yl)oxy)piperidin-1-yl)methanone], for which the values for the Ki in experiment [1], in experiment [2] and in experiment [3] were 20 nM, 18 nM and 544 nM, respectively.
The matching figures for `C[C@H]1[C@H](Oc2cnc(C(F)(F)F)cn2)CCCN1C(=O)c1ccccc1-c1ncc(F)cn1` [Example 166, (2-(5-fluoropyrimidin-2-yl)phenyl)((2S,3R)-2-methyl-3-((5-(trifluoromethyl)pyrazin-2-yl)oxy)piperidin-1-yl)methanone]: 97 nM, 124 nM and 3100 nM.
In the case of `Cc1cnc(-n2nccn2)c(C(=O)N2CCC[C@@H](Oc3ncc(C(F)(F)F)cc3F)[C@@H]2C)c1` [Example 157, ((2S,3R)-3-((3-fluoro-5-(trifluoromethyl)pyridin-2-yl)oxy)-2-methylpiperidin-1-yl)(5-methyl-2-(2H-1,2,3-triazol-2-yl)pyridin-3-yl)methanone], the Ki in experiment [1] was 49 nM; in experiment [2], 27 nM; in experiment [3], greater than 10000 nM.
The matching figures for `Cc1cnc(-n2nccn2)c(C(=O)N2CCC[C@@H](Oc3ccc(C(F)(F)F)cn3)[C@@H]2C)c1` [Example 149, (5-methyl-2-(2H-1,2,3-triazol-2-yl)pyridin-3-yl)((2S,3R)-2-methyl-3-((5-(trifluoromethyl)pyridin-2-yl)oxy)piperidin-1-yl)methanone]: 24 nM, 18 nM and 5600 nM.
The matching figures for `COc1ccc(-n2nccn2)c(C(=O)N2CCC[C@@H](Nc3cnc(C(F)(F)F)cn3)[C@@H]2C)c1` (relative stereo) [Example 184, (5-methoxy-2-(2H-1,2,3-triazol-2-yl)phenyl)((2S*,3R*)-2-methyl-3-((5-(trifluoromethyl)pyrazin-2-yl)amino)piperidin-1-yl)methanone]: 7 nM, 6 nM and 191 nM.
The matching figures for `Cc1cnc(C(=O)N2CCC[C@@H](Oc3cnc(C(F)(F)F)cn3)[C@@H]2C)c(-n2nccn2)c1` [Example 105, ((2S,3R)-2-methyl-3-((5-(trifluoromethyl)pyrazin-2-yl)oxy)piperidin-1-yl)(5-methyl-3-(2H-1,2,3-triazol-2-yl)pyridin-2-yl)methanone]: 192 nM, 269 nM and greater than 10000 nM.
In the case of `Cc1cccc(C(=O)N2CCC[C@@H](Oc3cnc(C(F)(F)F)cn3)[C@@H]2C)c1-c1ncccn1` [Example 171, (3-methyl-2-(pyrimidin-2-yl)phenyl)((2S,3R)-2-methyl-3-((5-(trifluoromethyl)pyrazin-2-yl)oxy)piperidin-1-yl)methanone], the figures for the Ki in experiment [1], in experiment [2] and in experiment [3] were 34 nM, 29 nM and 1100 nM, respectively.
The matching figures for `C[C@H]1[C@H](Nc2ccc(C(F)(F)F)cn2)CCCN1C(=O)c1cccc(F)c1-c1ncccn1` (relative stereo) [Example 189, (3-fluoro-2-(pyrimidin-2-yl)phenyl)((2S*,3R*)-2-methyl-3-((5-(trifluoromethyl)pyridin-2-yl)amino)piperidin-1-yl)methanone]: 7 nM, 5 nM and 175 nM.
The matching figures for `Cc1cnc(-c2ncccn2)c(C(=O)N2CCC[C@@H](Oc3ccc(Cl)cn3)[C@@H]2C)c1` [Example 217, ((2S,3R)-3-((5-chloropyridin-2-yl)oxy)-2-methylpiperidin-1-yl)(5-methyl-2-(pyrimidin-2-yl)pyridin-3-yl)methanone]: 177 nM, 154 nM and 8900 nM.
The matching figures for `C[C@H]1[C@H](Oc2ccc(C(F)(F)F)cn2)CCCN1C(=O)c1c(F)cccc1-c1ncccn1` [Example 212, (2-fluoro-6-(pyrimidin-2-yl)phenyl)((2S,3R)-2-methyl-3-((5-(trifluoromethyl)pyridin-2-yl)oxy)piperidin-1-yl)methanone]: 45 nM, 132 nM and 915 nM.
Consider `C[C@H]1[C@H](Oc2cnc(C(F)(F)F)cn2)CCCN1C(=O)c1cc(F)ccc1-c1ncco1` [Example 179, (5-fluoro-2-(oxazol-2-yl)phenyl)((2S,3R)-2-methyl-3-((5-(trifluoromethyl)pyrazin-2-yl)oxy)piperidin-1-yl)methanone], for which the Ki in experiment [1] is 100 nM; in experiment [2], 68 nM; in experiment [3], 1900 nM.
On to `COc1ccc(C(=O)N2CCC[C@@H](Nc3ccc(Cl)cn3)[C@@H]2C)c(-n2nccn2)c1` (relative stereo) [Example 181, ((2S*,3R*)-3-((5-chloropyridin-2-yl)amino)-2-methylpiperidin-1-yl)(4-methoxy-2-(2H-1,2,3-triazol-2-yl)phenyl)methanone], for which the inhibition constant (Ki) turned out to be 93 nM in experiment [1], 176 nM in experiment [2] and 5200 nM in experiment [3].
The matching figures for `C[C@H]1[C@H](Nc2ncc(C(F)(F)F)cn2)CCCN1C(=O)c1ccc(F)cc1-n1nccn1` (relative stereo) [Example 198, (4-fluoro-2-(2H-1,2,3-triazol-2-yl)phenyl)((2S*,3R*)-2-methyl-3-((5-(trifluoromethyl)pyrimidin-2-yl)amino)piperidin-1-yl)methanone]: 119 nM, 92 nM and 2500 nM.
The matching figures for `Cc1ccc(-n2nccn2)c(C(=O)N2CCC[C@@H](Oc3ncc(Cl)cn3)[C@@H]2C)n1` [Example 164, ((2S,3R)-3-((5-chloropyrimidin-2-yl)oxy)-2-methylpiperidin-1-yl)(6-methyl-3-(2H-1,2,3-triazol-2-yl)pyridin-2-yl)methanone]: 144 nM, 230 nM and 3800 nM.
As to `Cc1cnc(C(=O)N2CCC[C@@H](Oc3ccc(C(F)(F)F)cn3)[C@@H]2C)c(-n2nccn2)c1` [Example 111, ((2S,3R)-2-methyl-3-((5-(trifluoromethyl)pyridin-2-yl)oxy)piperidin-1-yl)(5-methyl-3-(2H-1,2,3-triazol-2-yl)pyridin-2-yl)methanone], the results for the Ki in experiment [1], in experiment [2] and in experiment [3] were 22 nM, 31 nM and 5100 nM, respectively.
